Measured values reported in publication PMC5025758 (Nature Communications, 2016).

Legend:
Dopamine D1 = target: T1, Dopamine D1 (Homo sapiens, UniProt P21728); assay: cell-based; design: off-target selectivity panel, receptor antagonist, channel blocker or transporter inhibition mode, pXC50; conditions: antagonist mode; read-out: pXC50 (antagonist) (converted)
T1 construct: gene DRD1
Text: (§1) From the outset, GSK3011724A, an indazole sulfonamide (Fig. 1a), represented an attractive compound for early stage drug discovery based on its anti-mycobacterial potency, small size and moderate lipophilicity (Table 1). Further profiling in vitro using standard assays, such as the hERG ion channel and cytochrome P450 isoforms supported this view (Table 1). […] A description of this optimization effort along with a thorough discussion of the drug development potential and liabilities of this series will be the subject of a future publication.

α1 nicotinic AChR [1] = target: T2, α1 nicotinic AChR (Homo sapiens, UniProt P02708); assay: cell-based; design: off-target selectivity panel, receptor antagonist, channel blocker or transporter inhibition mode, pXC50; conditions: read-out: pXC50 (blocker / transporter inhibition) (converted)
T2 construct: gene CHRNA1
Text: as §1

Serotonin 5HT2C [2] = target: T3, Serotonin 5HT2C (Homo sapiens, UniProt P28335); assay: cell-based; design: off-target selectivity panel, receptor antagonist, channel blocker or transporter inhibition mode, pXC50; conditions: antagonist mode; read-out: pXC50 (antagonist) (converted)
T3 construct: gene HTR2C
Text: as §1

NQO2 = NQO2 (Homo sapiens, UniProt P16083); assay: chemoproteomic competition binding in mixed HEK293/K562/placenta extract, LC-MS/MS; type: biochemical
Pks10 = Pks10 (Mycobacterium tuberculosis, UniProt Q7VEV2); type: biochemical
Pks11 = type: biochemical, Mycobacterium bovis BCG
KasA = target: T4, KasA (Mycobacterium tuberculosis, UniProt P9WQD9); assay: […] Å co-crystal structure; […]; also chemoproteomic Kd app […] and […] enzyme inhibition at […]; type: binding
T4 construct: recombinant KasA from pET28a-kasA

Adrenergic α2C = target: T5, Adrenergic α2C (Homo sapiens, UniProt P18825); assay: cell-based; design: off-target selectivity panel, receptor agonist or channel opener mode, pXC50; conditions: agonist mode; read-out: pXC50 (agonist) (converted)
T5 construct: gene ADRA2C
Text: as §1

Serotonin 5HT3 = target: T6, Serotonin 5HT3 (Homo sapiens, UniProt P46098); assay: cell-based; design: off-target selectivity panel, receptor agonist or channel opener mode, pXC50; conditions: opener mode; read-out: pXC50 (opener) (converted)
T6 construct: gene HTR3A
Text: as §1

Dopamine D2 = target: T7, Dopamine D2 (Homo sapiens, UniProt P14416); assay: cell-based; design: off-target selectivity panel, receptor agonist or channel opener mode, pXC50; conditions: agonist mode; read-out: pXC50 (agonist) (converted)
T7 construct: gene DRD2
Text: as §1

Opioid μ = target: T8, Opioid μ (Homo sapiens, UniProt P35372); assay: cell-based; design: off-target selectivity panel, receptor agonist or channel opener mode, pXC50; conditions: agonist mode; read-out: pXC50 (agonist) (converted)
T8 construct: gene OPRM1
Text: as §1

Muscarine M1 = target: T9, Muscarine M1 (Homo sapiens, UniProt P11229); assay: cell-based; design: off-target selectivity panel, receptor agonist or channel opener mode, pXC50; conditions: agonist mode; read-out: pXC50 (agonist) (converted)
T9 construct: gene CHRM1
Text: as §1

Adrenergic β2 = target: T10, Adrenergic β2 (Homo sapiens, UniProt P07550); assay: cell-based; design: off-target selectivity panel, receptor agonist or channel opener mode, pXC50; conditions: agonist mode; read-out: pXC50 (agonist) (converted)
T10 construct: gene ADRB2
Text: as §1

Serotonin 5HT1B = target: T11, Serotonin 5HT1B (Homo sapiens, UniProt P28222); assay: cell-based; design: off-target selectivity panel, receptor agonist or channel opener mode, pXC50; conditions: agonist mode; read-out: pXC50 (agonist) (converted)
T11 construct: gene HTR1B
Text: as §1

AhR = AhR (Homo sapiens, UniProt P35869); assay: cell-based; design: off-target selectivity panel, receptor agonist or channel opener mode, pXC50; conditions: agonist mode; read-out: pXC50 (agonist) (converted)
Text: as §1

Serotonin 5HT2A = target: T12, Serotonin 5HT2A (Homo sapiens, UniProt P28223); assay: cell-based; design: off-target selectivity panel, receptor agonist or channel opener mode, pXC50; conditions: agonist mode; read-out: pXC50 (agonist) (converted)
T12 construct: gene HTR2A
Text: as §1

Adenosine A2a = target: T13, Adenosine A2a (Homo sapiens, UniProt P29274); assay: cell-based; design: off-target selectivity panel, receptor agonist or channel opener mode, pXC50; conditions: agonist mode; read-out: pXC50 (agonist) (converted)
T13 construct: gene ADORA2A
Text: as §1

Muscarine M2 = target: T14, Muscarine M2 (Homo sapiens, UniProt P08172); assay: cell-based; design: off-target selectivity panel, receptor agonist or channel opener mode, pXC50; conditions: agonist mode; read-out: pXC50 (agonist) (converted)
T14 construct: gene CHRM2
Text: as §1

α1 nicotinic AChR [3] = target: T2, α1 nicotinic AChR; assay: cell-based; design: off-target selectivity panel, receptor agonist or channel opener mode, pXC50; conditions: opener mode; read-out: pXC50 (opener) (converted)
Text: as §1

Opioid κ = target: T15, Opioid κ (Homo sapiens, UniProt P41145); assay: cell-based; design: off-target selectivity panel, receptor agonist or channel opener mode, pXC50; conditions: agonist mode; read-out: pXC50 (agonist) (converted)
T15 construct: gene OPRK1
Text: as §1

Cannabinoid CB2 = target: T16, Cannabinoid CB2 (Homo sapiens, UniProt P34972); assay: cell-based; design: off-target selectivity panel, receptor agonist or channel opener mode, pXC50; conditions: agonist mode; read-out: pXC50 (agonist) (converted)
T16 construct: gene CNR2
Text: as §1

Serotonin 5HT2C [4] = target: T3, Serotonin 5HT2C; assay: cell-based; design: off-target selectivity panel, receptor agonist or channel opener mode, pXC50; conditions: agonist mode; read-out: pXC50 (agonist) (converted)
Text: as §1

PXR = target: T17, PXR (Homo sapiens, UniProt O75469); assay: cell-based; design: off-target selectivity panel, receptor agonist or channel opener mode, pXC50; conditions: agonist mode; read-out: pXC50 (agonist) (converted)
T17 construct: gene NR1I2
Text: as §1

T3 sequence (P28335 whole entry): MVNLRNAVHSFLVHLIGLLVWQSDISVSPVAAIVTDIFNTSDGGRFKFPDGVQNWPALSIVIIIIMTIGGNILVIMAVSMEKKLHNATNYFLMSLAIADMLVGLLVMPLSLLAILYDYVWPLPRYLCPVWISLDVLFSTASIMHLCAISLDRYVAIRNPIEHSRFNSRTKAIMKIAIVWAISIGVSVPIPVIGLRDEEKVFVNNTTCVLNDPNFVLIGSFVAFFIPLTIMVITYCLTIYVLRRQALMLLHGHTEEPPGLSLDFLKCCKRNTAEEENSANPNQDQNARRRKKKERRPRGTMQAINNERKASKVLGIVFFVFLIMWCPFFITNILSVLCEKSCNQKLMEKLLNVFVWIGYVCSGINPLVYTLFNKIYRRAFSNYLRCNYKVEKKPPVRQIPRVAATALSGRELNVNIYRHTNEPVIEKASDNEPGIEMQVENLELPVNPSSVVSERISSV
T2 sequence (P02708 whole entry): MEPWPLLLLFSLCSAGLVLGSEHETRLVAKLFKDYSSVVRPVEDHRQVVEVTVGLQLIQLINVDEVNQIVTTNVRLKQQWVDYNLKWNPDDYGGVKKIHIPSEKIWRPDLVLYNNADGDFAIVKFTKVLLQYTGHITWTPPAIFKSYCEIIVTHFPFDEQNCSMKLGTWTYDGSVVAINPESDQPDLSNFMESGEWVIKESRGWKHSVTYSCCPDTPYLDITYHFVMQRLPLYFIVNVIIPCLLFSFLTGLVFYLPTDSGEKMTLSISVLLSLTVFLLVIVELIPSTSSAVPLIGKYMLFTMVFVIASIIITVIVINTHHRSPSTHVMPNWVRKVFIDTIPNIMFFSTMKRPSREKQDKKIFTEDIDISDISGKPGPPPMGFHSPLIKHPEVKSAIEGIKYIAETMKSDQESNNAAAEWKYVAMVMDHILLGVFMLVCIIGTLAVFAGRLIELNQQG
T15 sequence (P41145 whole entry): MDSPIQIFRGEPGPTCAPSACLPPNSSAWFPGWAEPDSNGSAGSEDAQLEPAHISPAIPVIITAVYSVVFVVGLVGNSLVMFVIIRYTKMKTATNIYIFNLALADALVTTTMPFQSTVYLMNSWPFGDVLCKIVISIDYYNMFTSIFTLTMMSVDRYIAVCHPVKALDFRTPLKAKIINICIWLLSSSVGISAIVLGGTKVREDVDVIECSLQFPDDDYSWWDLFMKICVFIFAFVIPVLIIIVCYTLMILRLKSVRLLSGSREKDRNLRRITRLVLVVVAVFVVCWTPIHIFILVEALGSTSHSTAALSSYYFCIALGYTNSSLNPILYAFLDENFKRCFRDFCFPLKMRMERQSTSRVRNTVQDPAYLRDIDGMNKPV
T13 sequence (P29274 whole entry): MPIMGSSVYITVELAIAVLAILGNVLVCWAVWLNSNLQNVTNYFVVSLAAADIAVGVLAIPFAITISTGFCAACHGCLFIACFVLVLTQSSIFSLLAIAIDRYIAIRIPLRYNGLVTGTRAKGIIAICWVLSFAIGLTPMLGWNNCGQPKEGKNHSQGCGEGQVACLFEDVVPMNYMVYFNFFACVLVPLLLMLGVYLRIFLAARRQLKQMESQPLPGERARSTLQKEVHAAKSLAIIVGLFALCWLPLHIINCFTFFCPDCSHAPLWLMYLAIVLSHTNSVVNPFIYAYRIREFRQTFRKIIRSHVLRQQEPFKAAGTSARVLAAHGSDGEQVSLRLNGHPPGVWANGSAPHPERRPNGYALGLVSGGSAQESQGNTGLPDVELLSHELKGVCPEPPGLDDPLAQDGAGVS
T7 sequence (P14416 whole entry): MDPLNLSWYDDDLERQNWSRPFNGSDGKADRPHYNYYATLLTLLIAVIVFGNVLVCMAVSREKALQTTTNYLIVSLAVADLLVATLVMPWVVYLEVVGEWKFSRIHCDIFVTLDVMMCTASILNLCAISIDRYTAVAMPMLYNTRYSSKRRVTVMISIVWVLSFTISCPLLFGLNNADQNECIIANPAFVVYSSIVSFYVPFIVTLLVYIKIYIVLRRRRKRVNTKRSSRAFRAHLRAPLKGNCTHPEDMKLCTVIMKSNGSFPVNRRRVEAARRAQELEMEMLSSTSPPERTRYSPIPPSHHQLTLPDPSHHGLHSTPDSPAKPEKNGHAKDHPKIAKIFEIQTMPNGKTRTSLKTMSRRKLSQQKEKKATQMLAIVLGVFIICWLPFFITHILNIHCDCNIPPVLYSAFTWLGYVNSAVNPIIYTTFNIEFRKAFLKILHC
T1 sequence (P21728 whole entry): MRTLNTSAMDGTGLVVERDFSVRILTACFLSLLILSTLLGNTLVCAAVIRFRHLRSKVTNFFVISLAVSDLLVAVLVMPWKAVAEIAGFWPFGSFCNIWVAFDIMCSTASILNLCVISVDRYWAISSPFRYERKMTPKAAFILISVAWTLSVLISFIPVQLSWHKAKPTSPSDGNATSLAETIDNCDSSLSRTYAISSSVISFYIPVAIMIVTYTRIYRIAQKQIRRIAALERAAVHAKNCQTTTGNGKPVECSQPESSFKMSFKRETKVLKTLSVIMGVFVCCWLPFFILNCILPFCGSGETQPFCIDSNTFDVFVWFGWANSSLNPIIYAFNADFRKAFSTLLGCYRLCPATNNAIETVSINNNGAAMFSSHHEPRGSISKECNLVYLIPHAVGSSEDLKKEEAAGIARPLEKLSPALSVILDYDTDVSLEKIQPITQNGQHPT
T9 sequence (P11229 whole entry): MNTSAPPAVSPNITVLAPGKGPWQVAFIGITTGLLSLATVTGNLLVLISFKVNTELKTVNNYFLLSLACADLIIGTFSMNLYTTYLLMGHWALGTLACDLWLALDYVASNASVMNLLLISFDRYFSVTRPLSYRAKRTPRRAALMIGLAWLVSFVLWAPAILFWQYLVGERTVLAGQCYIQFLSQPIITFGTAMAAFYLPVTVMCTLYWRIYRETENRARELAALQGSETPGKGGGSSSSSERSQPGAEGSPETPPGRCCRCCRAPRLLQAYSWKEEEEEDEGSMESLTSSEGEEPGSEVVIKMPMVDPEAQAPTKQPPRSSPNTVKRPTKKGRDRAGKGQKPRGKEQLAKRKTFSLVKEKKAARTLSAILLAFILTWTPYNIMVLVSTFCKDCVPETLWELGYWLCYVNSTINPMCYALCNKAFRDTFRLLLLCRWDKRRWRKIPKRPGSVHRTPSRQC
T16 sequence (P34972 whole entry): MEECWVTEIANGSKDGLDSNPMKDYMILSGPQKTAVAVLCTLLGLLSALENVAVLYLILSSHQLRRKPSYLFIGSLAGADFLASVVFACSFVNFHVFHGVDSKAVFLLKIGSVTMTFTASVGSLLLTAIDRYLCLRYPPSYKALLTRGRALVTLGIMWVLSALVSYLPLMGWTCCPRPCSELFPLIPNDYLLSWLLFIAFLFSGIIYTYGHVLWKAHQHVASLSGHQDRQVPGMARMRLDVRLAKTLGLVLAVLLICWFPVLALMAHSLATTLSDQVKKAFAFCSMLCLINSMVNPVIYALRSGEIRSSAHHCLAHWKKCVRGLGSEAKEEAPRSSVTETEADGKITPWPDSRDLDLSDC
T8 sequence (P35372 whole entry): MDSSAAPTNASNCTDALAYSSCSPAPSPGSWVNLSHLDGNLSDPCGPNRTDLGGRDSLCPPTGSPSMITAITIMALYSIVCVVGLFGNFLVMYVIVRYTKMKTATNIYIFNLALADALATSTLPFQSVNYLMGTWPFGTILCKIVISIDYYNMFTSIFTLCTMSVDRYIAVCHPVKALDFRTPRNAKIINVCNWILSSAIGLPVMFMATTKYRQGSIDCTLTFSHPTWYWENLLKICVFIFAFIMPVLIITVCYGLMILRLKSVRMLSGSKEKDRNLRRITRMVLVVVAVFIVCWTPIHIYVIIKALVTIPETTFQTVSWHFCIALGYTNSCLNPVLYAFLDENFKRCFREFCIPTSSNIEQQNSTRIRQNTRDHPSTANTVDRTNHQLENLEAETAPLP
T14 sequence (P08172 whole entry): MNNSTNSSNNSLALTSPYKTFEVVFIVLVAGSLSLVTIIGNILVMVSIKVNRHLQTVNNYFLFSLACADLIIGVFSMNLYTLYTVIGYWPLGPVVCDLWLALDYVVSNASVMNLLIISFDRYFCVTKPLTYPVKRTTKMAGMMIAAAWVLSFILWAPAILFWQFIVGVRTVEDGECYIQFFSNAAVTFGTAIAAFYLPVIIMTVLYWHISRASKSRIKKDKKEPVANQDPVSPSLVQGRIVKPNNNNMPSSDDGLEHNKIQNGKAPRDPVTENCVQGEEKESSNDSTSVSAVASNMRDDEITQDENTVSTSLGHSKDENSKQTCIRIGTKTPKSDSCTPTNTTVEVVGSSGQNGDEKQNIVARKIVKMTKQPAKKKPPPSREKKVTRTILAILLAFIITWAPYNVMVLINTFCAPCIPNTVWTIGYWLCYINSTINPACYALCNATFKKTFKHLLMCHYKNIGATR
T6 sequence (P46098 whole entry): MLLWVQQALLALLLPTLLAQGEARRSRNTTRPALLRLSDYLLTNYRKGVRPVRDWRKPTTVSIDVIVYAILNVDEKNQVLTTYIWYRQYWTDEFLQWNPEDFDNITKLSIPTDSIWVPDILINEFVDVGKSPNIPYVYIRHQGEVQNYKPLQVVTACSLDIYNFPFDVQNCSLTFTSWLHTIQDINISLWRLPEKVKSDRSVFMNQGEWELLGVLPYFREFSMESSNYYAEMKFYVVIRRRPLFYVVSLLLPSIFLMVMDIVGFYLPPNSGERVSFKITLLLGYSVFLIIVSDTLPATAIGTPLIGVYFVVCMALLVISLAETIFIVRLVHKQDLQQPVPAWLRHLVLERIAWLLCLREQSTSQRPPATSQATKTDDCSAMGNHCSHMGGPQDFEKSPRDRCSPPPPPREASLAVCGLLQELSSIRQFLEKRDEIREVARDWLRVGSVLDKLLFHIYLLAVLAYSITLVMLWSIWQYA

## CCCCS(=O)(=O)Nc1ccc2cnn(C)c2c1 [GSK3011724A]
Dopamine D1
  IC50: > 100 µM
α1 nicotinic AChR [1]
  IC50: > 50.1 µM
Serotonin 5HT2C [2]
  IC50: > 25.1 µM
NQO2
  Kd: 4 to 6 µM
Pks10
  Kd: 1400 nM
Pks11
  Kd: 1400 nM
KasA
  Kd: 10 to 20 nM
Adrenergic α2C
  EC50: > 100 µM
Serotonin 5HT3
  EC50: > 50.1 µM
Dopamine D2
  EC50: > 100 µM
Opioid μ
  EC50: > 100 µM
Muscarine M1
  EC50: > 50.1 µM
Adrenergic β2
  EC50: > 100 µM
Serotonin 5HT1B
  EC50: > 100 µM
AhR
  EC50: > 100 µM
Serotonin 5HT2A
  EC50: > 25.1 µM
Adenosine A2a
  EC50: > 100 µM
Muscarine M2
  EC50: > 50.1 µM
α1 nicotinic AChR [3]
  EC50: > 50.1 µM
Opioid κ
  EC50: > 100 µM
Cannabinoid CB2
  EC50: > 100 µM
Serotonin 5HT2C [4]
  EC50: > 25.1 µM
PXR
  EC50: > 50.1 µM
